Values of other authors in US20020137785A1, “Inflammatory mechanism modulator composition and methods with anti-asthmatic properties” (priority 2001, published 2002).

Experiments:
[1] = people with septic shock; NAC alone; reduced from 21 days
[2] = intravenous; coronary artery disease; tachycardia induced in the electrophysiology laboratory

Structure (SMILES): CC(=O)N[C@@H](CS)C(=O)O [NAC, N-acetyl-cysteine]
- ventilator time (mechanical breathing) [1]: about 7 days

Structure (SMILES): O=S(=O)([O-])[O-].[Mg+2] [magnesium sulfate]
- aborting monomorphic ventricular tachycardia [2]: ineffective
